In ChEMBL document CHEMBL2163300, “Mitogen-activated protein kinase-activated protein kinase 2 (MAPKAP-K2) as an antiinflammatory target: discovery and in vivo activity of selective pyrazolo[1,5-a]pyrimidine inhibitors using a focused library and structure-based optimization approach” (J Med Chem, 2012):
Calls of active or inactive are those of the source. No cut-off for these calls is given here.

Legend:
[1] = target: T1, MAP kinase-activated protein kinase 2 (Homo sapiens, UniProt P49137); experiment: Inhibition of MAPKAP-K2 using KKLNRTLSVA as substrate and [33P]-gamma-ATP after 30 mins by liquid scintillation counter
T1 sequence (P49137 whole entry): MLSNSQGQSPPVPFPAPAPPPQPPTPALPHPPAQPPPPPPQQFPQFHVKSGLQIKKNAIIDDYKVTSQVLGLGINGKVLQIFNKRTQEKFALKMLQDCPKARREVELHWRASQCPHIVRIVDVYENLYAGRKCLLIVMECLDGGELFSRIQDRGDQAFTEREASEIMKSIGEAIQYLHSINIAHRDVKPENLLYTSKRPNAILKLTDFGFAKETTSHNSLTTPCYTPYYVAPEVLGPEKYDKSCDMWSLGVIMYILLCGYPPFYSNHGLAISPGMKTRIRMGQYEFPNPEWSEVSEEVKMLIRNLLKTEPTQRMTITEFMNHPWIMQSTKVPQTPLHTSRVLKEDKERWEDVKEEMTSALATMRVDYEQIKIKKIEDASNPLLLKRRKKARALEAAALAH

[2] = target: Cyclin-dependent kinase 2 (Homo sapiens, UniProt P24941)
Description: Inhibition of CDK2 after 60 mins using [33P]-gamma-ATP by liquid scintillation counter

[3] = target: Serine/threonine-protein kinase Chk2 (Homo sapiens) (UniProt O96017); experiment: Inhibition of human CHK2 at 30 uM by Cyclex assay
Serine/threonine-protein kinase Chk2 (Homo sapiens), sequence (O96017 whole entry): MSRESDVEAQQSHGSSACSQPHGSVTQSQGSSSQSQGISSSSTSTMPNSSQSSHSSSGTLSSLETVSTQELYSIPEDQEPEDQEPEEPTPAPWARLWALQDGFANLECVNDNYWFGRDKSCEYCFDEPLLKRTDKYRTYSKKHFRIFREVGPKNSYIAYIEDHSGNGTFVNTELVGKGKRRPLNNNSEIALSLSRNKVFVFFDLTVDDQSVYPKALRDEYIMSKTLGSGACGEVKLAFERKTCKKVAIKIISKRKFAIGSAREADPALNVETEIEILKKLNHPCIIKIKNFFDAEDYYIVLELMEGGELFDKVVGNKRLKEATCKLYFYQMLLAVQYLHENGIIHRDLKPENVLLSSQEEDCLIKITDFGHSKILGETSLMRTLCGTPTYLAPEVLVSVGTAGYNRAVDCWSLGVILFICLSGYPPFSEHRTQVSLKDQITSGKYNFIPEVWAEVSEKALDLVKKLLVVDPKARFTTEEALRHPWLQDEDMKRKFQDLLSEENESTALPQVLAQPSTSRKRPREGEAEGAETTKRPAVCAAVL

[4] = target: T1, MAP kinase-activated protein kinase 2; experiment: Binding affinity to recombinant MAPKAP-K2 using KKKALSRQLSVAA as substrate after 4 mins by […]
[5] = target: T1, MAP kinase-activated protein kinase 2; experiment: Inhibition of MAPKAP-K2
[6] = Total clearance in mouse at 1 mg/kg, iv; format: ADME, organism-based; set-up: dose 1 mg/kg, route intravenous; details: in vivo
[7] = Half life in mouse at 1 mg/kg, iv; format: ADME, organism-based; set-up: dose 1 mg/kg, route intravenous; details: in vivo
[8] = AUC (0 to 24 hrs) in mouse at 1 mg/kg, po; format: ADME, organism-based; set-up: time < 24 hr, dose 1 mg/kg, route oral; details: plasma
[9] = Oral bioavailability in mouse at 1 mg/kg; format: ADME, organism-based; details: in vivo
THP-1 = experiment: Cytotoxicity against human THP1 cells assessed as cell viability by MTS assay; format: cell-based
[10] = target: T1, MAP kinase-activated protein kinase 2; experiment: Inhibition of human MAPKAP-K2 in THP1 cells assessed as inhibition of LPS-induced TNFalpha production incubated 1 hr prior to LPS challenge measured 18 hrs post LPS challenge by HTRF assay; format: cell-based, THP-1
Mus musculus = experiment: Antiinflammatory activity in po dosed C57BL/6 mouse assessed as decrease in LPS-induced serum TNFalpha level administered 30 mins prior to LPS challenge measured 60 mins post LPS challenge by ELISA; format: functional, organism-based

| SMILES | IC50 [1] | IC50 [2] | further results |
| --- | --- | --- | --- |
| Nc1ccc(Nc2cc(Nc3ccc(F)c(Cl)c3)n3nccc3n2)cc1 | > 100 µM |  |  |
| CCOc1ccc(Nc2c(C)c(NCCCN)nc3ccnn23)cc1 | 8.7 µM |  |  |
| CCOc1ccc(Nc2c(C)c(N[C@H]3CC[C@H](O)CC3)nc3ccnn23)cc1 | 89 µM |  |  |
| Fc1ccc(Nc2cc(NC3CCNCC3)nc3ccnn23)cc1Cl | 25 µM |  |  |
| Fc1ccc(Nc2cc(NCC3CCNCC3)nc3ccnn23)cc1Cl | > 100 µM |  |  |
| Cc1ccc(-c2ccc3c(ccc4sc5c(c43)NC[C@@H](C)NC5=O)n2)cn1 |  |  | IC50 [4]: 0.005 µM |
| Cc1c(NC2CCCNC2)nc2ccnn2c1Nc1ccc(F)c(Cl)c1 (racemic) | 0.51 µM | 33 µM |  |
| CCOc1ccc(Nc2c(C)c(O[C@H]3CC[C@H](N)CC3)nc3ccnn23)cc1 | 0.57 µM |  |  |
| CC(=O)c1ccc(-c2ccc(Nc3c(C)c(N[C@H]4CCCNC4)nc4ccnn34)cc2)s1 | 0.057 µM | 21 µM |  |
| CCCc1c(N[C@H]2CC[C@H](N)CC2)nc2ccnn2c1Nc1ccc(F)c(Cl)c1 | 0.6 µM | 2.1 µM |  |
| N#Cc1c(N)nc2c(c1N)Cc1cc(O)c(O)cc1O2 |  |  | IC50 [5]: 0.13 µM |
| Fc1ccc(Nc2cc(NC3CCCNC3)nc3ccnn23)cc1Cl (racemic) | 0.4 µM | 0.7 µM |  |
| Cc1c(N[C@H]2CCCNC2)nc2ccnn2c1Nc1ccc2c(cnn2C)c1 | 0.076 µM | 27 µM |  |
| COCCOc1ccc(Nc2c(C)c(N[C@H]3CCCNC3)nc3ccnn23)cc1 | 0.13 µM | 22 µM | clearance [6]: 58.3 mL/min/kg; half-life [7]: 1 h; AUC(0-t) at 24 h [8]: 0.316 µM·h; bioavailability [9]: 80%; IC50 (THP-1): > 100 µM; IC50 [10]: 7.6 µM |
| Fc1ccc(Nc2cc(NC3CCCCC3)nc3ccnn23)cc1Cl | > 100 µM |  |  |
| Cc1ccc(-n2nc(C(C)(C)C)cc2NC(=O)Nc2ccc(OCCN3CCOCC3)c3ccccc23)cc1 |  |  | Activity (Mus musculus): Dose-dependent effect |
| CCOc1ccc(Nc2c(C)c(NCCCCN)nc3ccnn23)cc1 | 4.1 µM |  |  |
| CCOc1ccc(Nc2c(C)c(N[C@H]3CCCNC3=O)nc3ccnn23)cc1 | > 100 µM |  |  |
| Cc1cc2nc(N[C@H]3CC[C@H](N)CC3)cc(Nc3ccc(F)c(Cl)c3)n2n1 | > 300 µM |  |  |
| N#Cc1cnn2c(Nc3ccc(F)c(Cl)c3)cc(N[C@H]3CC[C@H](N)CC3)nc12 | 3.1 µM | 0.004 µM |  |
| N[C@H]1CC[C@H](Nc2cc(Nc3ccc(F)c(Cl)c3)n3ncc(Cl)c3n2)CC1 | 8.1 µM | 0.003 µM |  |
| Cc1c(N[C@H]2CCCNC2)nc2ccnn2c1Nc1ccc(C(=O)NC2CCCC2)cc1 | 0.14 µM | 49 µM |  |
| CC(C)(C)c1cc2nc(N[C@H]3CC[C@H](N)CC3)cc(Nc3ccc(F)c(Cl)c3)n2n1 | > 300 µM |  |  |
| CCOc1ccc(Nc2c(C)c(NCCN)nc3ccnn23)cc1 | 2.5 µM |  |  |
| Cc1c(N[C@H]2CCCNC2)nc2ccnn2c1Nc1ccc(OCCN2CCOCC2)cc1 | 0.16 µM | 62 µM |  |
| N[C@H]1CC[C@H](Nc2cc(Nc3ccc(F)c(Cl)c3)n3ncc(Br)c3n2)CC1 | 9.2 µM | 0.0034 µM |  |
| CCc1c(NC2CCCNC2)nc2ccnn2c1Nc1ccc(F)c(Cl)c1 (racemic) | 0.7 µM | 24 µM |  |
| CCOc1ccc(Nc2c(C)c(N(C)C3CCCNC3)nc3ccnn23)cc1 (racemic) | 26 µM |  |  |
| CCOc1ccc(Nc2c(C)c(NCCO)nc3ccnn23)cc1 | 83 µM |  |  |
| Cc1nc2ccc(Nc3c(C)c(N[C@H]4CCCNC4)nc4ccnn34)cc2s1 | 0.054 µM | 25 µM | clearance [6]: 58.3 mL/min/kg; half-life [7]: 2.6 h; AUC(0-t) at 24 h [8]: 0.579 µM·h; bioavailability [9]: 79%; IC50 (THP-1): 54 µM; IC50 [10]: 8.4 µM |

More lines, main results first:

| IC50 [1] | IC50 [2] | SMILES | further results |
| --- | --- | --- | --- |
| 1.7 µM | 6.4 µM | Cc1c(N[C@H]2CC[C@H](N)CC2)nc2ccnn2c1Nc1ccccc1Cl |  |
| 1.9 µM |  | CCOC(=O)c1cccc(Nc2c(C)c(N[C@H]3CC[C@H](N)CC3)nc3ccnn23)c1 |  |
| 1.4 µM |  | CCOc1cccc(Nc2c(C)c(N[C@H]3CC[C@H](N)CC3)nc3ccnn23)c1 |  |
| 0.2 µM | 0.39 µM | N[C@H]1CC[C@H](Nc2cc(Nc3ccccc3Cl)n3nccc3n2)CC1 | inhibition [3]: inactive |
| 0.4 µM | 3.6 µM | CCc1c(N[C@H]2CC[C@H](N)CC2)nc2ccnn2c1Nc1ccc(F)c(Cl)c1 | inhibition [3]: inactive |
| 0.4 µM | 11 µM | Cc1c(N[C@H]2CC[C@H](N)CC2)nc2ccnn2c1Nc1ccc(F)c(Cl)c1 |  |
| 12 µM |  | CC(C)CCNc1cc(N[C@H]2CC[C@H](N)CC2)nc2ccnn12 |  |
| 7 µM |  | N[C@H]1CC[C@H](Nc2cc(NCc3ccccc3)n3nccc3n2)CC1 |  |
| 2 µM |  | CCN[C@H]1CC[C@H](Nc2cc(Nc3ccc(F)c(Cl)c3)n3nccc3n2)CC1 |  |
| 0.7 µM |  | CCOC(=O)c1ccc(Nc2c(C)c(N[C@H]3CC[C@H](N)CC3)nc3ccnn23)cc1 |  |
| > 100 µM |  | NC1CCCC(Nc2cc(Nc3ccc(F)c(Cl)c3)n3nccc3n2)C1 (centres undefined) |  |
| 0.7 µM |  | Cc1c(N[C@H]2CC[C@H](N)CC2)nc2ccnn2c1Nc1ccc(OCc2ccccc2)cc1 |  |
| > 100 µM |  | CC(=O)N[C@H]1CC[C@H](Nc2cc(Nc3ccc(F)c(Cl)c3)n3nccc3n2)CC1 |  |
| 1.6 µM | 6 µM | N[C@H]1CC[C@H](Nc2nc3ccnn3c(Nc3ccc(F)c(Cl)c3)c2-c2ccccc2)CC1 |  |
| > 100 µM |  | CCN(CC)[C@H]1CC[C@H](Nc2cc(Nc3ccc(F)c(Cl)c3)n3nccc3n2)CC1 |  |
| 3 µM |  | Cc1c(N[C@H]2CC[C@H](N)CC2)nc2ccnn2c1Nc1cccc(OCc2ccccc2)c1 |  |
| 0.36 µM |  | CCOc1ccc(Nc2c(C)c(N[C@H]3CC[C@H](N)CC3)nc3ccnn23)cc1 | inhibition [3]: inactive |
| 1.5 µM | > 300 µM | CCc1c(N[C@H]2CC[C@H](N)CC2)nc2ccnn2c1Nc1ccccc1Cl |  |
| > 300 µM |  | CN(c1ccc(F)c(Cl)c1)c1cc(N[C@H]2CC[C@H](N)CC2)nc2ccnn12 |  |
| 11 µM |  | N[C@H]1CC[C@H](Nc2cc(NCC3CCCCC3)n3nccc3n2)CC1 |  |
